For series [1] the following is noted: prolonged treatment, moderate or high doses; cited from earlier work.
For series [2] the following is noted: compared to other vitamin D analogues; cited from earlier work.
For the next series, the system named is serum osteocalcin. The series is described as follows: Comparative effects of L-carnitine, acetyl carnitine and γ-butyrobetaine on serum osteocalcin in adult mice. The series is classed as in vivo, mouse (BALB/c male). To be noted: for Osteocalcin: actual intake estimated about half. On the procedure:
(§1) The present invention is further explained by the following examples which should not be construed by way of limiting the scope of the present invention. In the following examples, serum carnitine levels were determined by the method of R. Parvin et al., Anal. Biochem., vol. 79 (1979) pp. 190-201. Serum IGF-1 concentrations were measured by immunoradiometric assay, for example, by IRMA Kit available from Diagnostic Systems Laboratories, Inc., Webster, Texas. Serum osteocalcin levels were measured according to the method of Grunaberg et al., Meth. Enzymology, vol 107 (1984) 516, and which is embodied in an osteocalcin kit available from Biomedical Technologies, Inc., Stoughton, Mass. All mice used in the animal studies were BALB/c strain which is commercially available.
(§2) Tests were performed to compare the effects on serum osteocalcin of diet supplementation with L-carnitine, its precursor, γ-butyrobetaine (available from Aldrich Chemical Co.) and one of its metabolites, acetylcarnitine (available from Life Science Resources, Milwaukee, Wis. 53223). Twenty adult mice, i.e., three months of age, (BALB/c male mice) were divided into seven groups. Each of the groups was fed diets as indicated hereinbelow for twelve weeks. One group (n=3) was fed a diet with L-carnitine supplementation at a dose of 50 mg/kg of body weight each day, while the second group (n=3) was fed L-carnitine at a daily dose of about 100 mg/kg. The third group (n=2) was fed a diet with acetylcarnitine supplementation at a daily dose of 50 mg/kg, while the fourth group (n=3) was fed a daily dose of 100 mg/kg of this compound. The fifth group (n=2) was fed a daily dose of 50 mg/kg of γ-butyrobetaine supplementation,while the sixth group was fed a daily dose of 100 mg/kg of γ-butyrobetaine. The seventh group (n=4) was fed normal, unsupplemented feed (control). Mouse blood was sampled prior to beginning of the trial (pretreatment), at six weeks, and at the end of the trial (twelve weeks). The samples were evaluated for serum osteocalcin levels at six and twelve weeks. Total carnitine was determined at twelve weeks.

Series [3] in a line: Serum carnitine at 12 weeks in adult mice fed L-carnitine, acetyl carnitine or γ-butyrobetaine. Also on record: species or system mouse (BALB/c male). The conditions noted are these: mouse, in vivo, po. The method, then:
as §1, §2

For series [4] the following is noted: human beings; cited from earlier work.
Series [5] concerns children with carnitine deficiency. To be noted: carnitine repletion; cited from earlier work.
The test system of another series is body composition. To be noted: replacement doses; cited from earlier work.
For series [6] the following is noted: prolonged treatment, moderate or high doses; cited from earlier work. The source holds these as a separate data set.

We go through six molecules from patent US5240961A, “Method of treating reduced insulin-like growth factor and bone loss associated with aging” (priority 1992, dated 1993).

“And” between values parts separate entries of the source, which are not always exact repeats. Identical values can stand only once. “Also recorded” adds a separate entry of the source. Like-named read-outs stand apart in the source and are kept apart here.

Consider “IGF-1: insulin-like growth factor 1, produced and released by the liver in response to growth hormone”, for which, in series [1], the potential side-effects result is “abdominal bloating, indigestion and nausea, and alteration in cellular insulin receptor sites”.
Consider `C=C1/C(=C\C=C2/CCC[C@]3(C)[C@@H]([C@H](C)/C=C/[C@H](C)C(C)C)CC[C@@H]23)C[C@@H](O)C[C@@H]1O` [1α-hydroxy vitamin D2], for which the “toxicity” value in series [2] is recorded as “low toxicity”.
On to `CC(=O)O[C@H](CC(=O)[O-])C[N+](C)(C)C` [acetyl L-carnitine, acetylcarnitine, reference compound], for which the “significance of difference in osteocalcin vs control (p, student's t test)” value in the series with serum osteocalcin (50 mg/kg/day) was less than 0.01. For the same molecule, the Osteocalcin was 70 ng/mL and 70 ± 4 ng/mL in the series on serum osteocalcin (50 mg/kg/day, 6 wks); 62 ng/mL with serum osteocalcin (50 mg/kg/day, 12 wks); 60 ng/mL and 61 ± 6 ng/mL in the series on serum osteocalcin (100 mg/kg/day, 6 wks); 77 ng/mL in the series with serum osteocalcin (100 mg/kg/day, 12 wks). Also, the concentration at 2016 h came out at 45.6 µM in series [3] (50 mg/kg/day, 12 wks, read-out: Serum carnitine, Free); 59.6 µM in series [3] (50 mg/kg/day, 12 wks, read-out: Serum carnitine, Total); 52.1 µM in series [3] (100 mg/kg/day, 12 wks, read-out: Serum carnitine, Free); 65.1 µM in series [3] (100 mg/kg/day, 12 wks, read-out: Serum carnitine, Total).
For `C[N+](C)(C)CCCC(=O)[O-]` [γ-butyrobetaine, 4-trimethylamino butyrate], the “significance of difference in osteocalcin vs control (p, student's t test)” value is recorded as less than 0.05 in the series with serum osteocalcin (50 mg/kg/day) and “< .01” in the series on serum osteocalcin (100 mg/kg/day). Besides, the Osteocalcin is 184 ng/mL and 184 ± 6 ng/mL in the series with serum osteocalcin (50 mg/kg/day, 6 wks); 173 ng/mL in the series on serum osteocalcin (50 mg/kg/day, 12 wks); 220 ng/mL and 220 ± 75 ng/mL with serum osteocalcin (100 mg/kg/day, 6 wks); 122 ng/mL in the series with serum osteocalcin (100 mg/kg/day, 12 wks). In addition, the “effect on osteocalcin” value in the series with serum osteocalcin (adult mice, 50 and 100 mg/kg/day) was “stimulate osteocalcin production in adult mice; also recorded: maintained osteocalcin blood levels; also recorded: at least as effective as, and possibly better than, L-carnitine in increasing osteocalcin levels”. Moreover, the concentration at 2016 h in series [3] (50 mg/kg/day, Serum carnitine, Free) turned out to be 40.7 µM; in series [3] (50 mg/kg/day, Serum carnitine, Total) it was 63.2 µM; in series [3] (100 mg/kg/day, Serum carnitine, Free) it was 40.4 µM; in series [3] (100 mg/kg/day, Serum carnitine, Total) it was 58.5 µM.
On to `C[N+](C)(C)CC(O)CC(=O)[O-]` (stereo not drawn) [carnitine, β-hydroxy-γ-N-trimethylammounium butyrate], for which the serum half-life entry in series [4] is “about 30 minutes”. Besides, the “stunted growth” value in series [5] is “normalizes with carnitine repletion”.
As to “growth hormone: pituitary growth hormone, now readily available as a biosynthetic product”, the “alterations in body composition” value in the series with body composition was “can be reversed by replacement doses of the hormone”. In addition, the side-effects observed result in series [6] was “stimulation of neoplastic growth, acromegaly, amenorrhea, flushing and nausea, "dawn" phenomena (a condition of insulin insufficiency which is very dangerous for diabetics), either hyperglycemia or hypoglycemia in diabetics, and fluid retention”.
